# Experimental data reported in the supplement of paper PMC10307832.
# Tests used:
# Test in all cases: relative viability (nuclei count vs DMSO), 5 days (fraction); higher = more cells survive
# [1] = tested on: NCI-H1651
# How it was run: (§1)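 Dosing by pin tool came one day after lung cancer cell lines were seeded in 1536-well plates, using either one drug or a fixed anchor-drug dose plus five library-drug doses (not always all listed) in √10 steps. After 5 days, nuclei were counted on 4× images. Relative viability is treated-well nuclei count divided by vehicle-well nuclei count, and values are medians of duplicate plates.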
# [2] = tested on: NCI-H2228
# How it was run: as §1
# [3] = tested on: NCI-H2347
# How it was run: as §1
# [4] = tested on: NCI-H647
# How it was run: as §1
# [5] = tested on: NCI-H2085
# How it was run: as §1
# [6] = tested on: HCC-44
# How it was run: as §1
# [7] = tested on: LC-2-ad
# How it was run: as §1
# [8] = tested on: COR-L23
# How it was run: as §1
# [9] = tested on: NCI-H2170
# How it was run: as §1
# [10] = tested on: NCI-H1395
# How it was run: as §1
# [11] = tested on: HOP-62
# How it was run: as §1
# [12] = tested on: NCI-H838
# How it was run: as §1
# [13] = tested on: NCI-H1355
# How it was run: as §1
# [14] = tested on: CAL-12T
# How it was run: as §1
# [15] = tested on: NCI-H23
# How it was run: as §1
# [16] = tested on: NCI-H1993
# How it was run: as §1
# [17] = tested on: NCI-H520
# How it was run: as §1
# [18] = tested on: NCI-H1666
# How it was run: as §1
# [19] = tested on: 201T
# How it was run: as §1
# [20] = tested on: NCI-H322M
# How it was run: as §1
smiles,measurement,setting,value
O=c1[nH]c2ccccc2n1C1CCN(CCCC(c2ccc(F)cc2)c2ccc(F)cc2)CC1 [Pimozide] + CC1(C)CCC(c2ccc(Cl)cc2)=C(CN2CCN(c3ccc(C(=O)NS(=O)(=O)c4ccc(N[C@H](CCN5CCOCC5)CSc5ccccc5)c(S(=O)(=O)C(F)(F)F)c4)cc3)CC2)C1 [Navitoclax] (partner 0.5 µM),relative viability,[1]; first compound 0.08 µM,0.953
same,relative viability,[1]; first compound 0.253 µM,1.06
same,relative viability,[1]; first compound 0.8 µM,1.07
same,relative viability,[1]; first compound 2.53 µM,1.11
same,relative viability,[1]; first compound 8 µM,0.992
same,relative viability,[2]; first compound 0.08 µM,0.758
same,relative viability,[2]; first compound 0.253 µM,0.715
same,relative viability,[2]; first compound 0.8 µM,0.845
same,relative viability,[2]; first compound 2.53 µM,0.616
same,relative viability,[2]; first compound 8 µM,0.614
same,relative viability,[3]; first compound 0.08 µM,0.799
same,relative viability,[3]; first compound 0.253 µM,0.732
same,relative viability,[3]; first compound 0.8 µM,0.73
same,relative viability,[3]; first compound 2.53 µM,0.683
same,relative viability,[3]; first compound 8 µM,0.819
same,relative viability,[4]; first compound 0.08 µM,1.17
same,relative viability,[4]; first compound 0.253 µM,1.14
same,relative viability,[4]; first compound 0.8 µM,0.91
same,relative viability,[4]; first compound 2.53 µM,0.954
same,relative viability,[4]; first compound 8 µM,0.837
same,relative viability,[5]; first compound 0.08 µM,1.15
same,relative viability,[5]; first compound 0.253 µM,1.15
same,relative viability,[5]; first compound 0.8 µM,1.11
same,relative viability,[5]; first compound 2.53 µM,1.04
same,relative viability,[5]; first compound 8 µM,1.06
same,relative viability,[6]; first compound 0.08 µM,0.965
same,relative viability,[6]; first compound 0.253 µM,1
same,relative viability,[6]; first compound 0.8 µM,0.95
same,relative viability,[6]; first compound 2.53 µM,0.884
same,relative viability,[6]; first compound 8 µM,0.971
same,relative viability,[7]; first compound 0.08 µM,0.498
same,relative viability,[7]; first compound 0.253 µM,0.509
same,relative viability,[7]; first compound 0.8 µM,0.286
same,relative viability,[7]; first compound 2.53 µM,0.421
same,relative viability,[7]; first compound 8 µM,0.392
same,relative viability,[8]; first compound 0.08 µM,1.02
same,relative viability,[8]; first compound 0.253 µM,0.923
same,relative viability,[8]; first compound 0.8 µM,0.913
same,relative viability,[8]; first compound 2.53 µM,1.14
same,relative viability,[8]; first compound 8 µM,0.933
same,relative viability,[9]; first compound 0.08 µM,0.526
same,relative viability,[9]; first compound 0.253 µM,0.703
same,relative viability,[9]; first compound 0.8 µM,0.596
same,relative viability,[9]; first compound 2.53 µM,0.571
same,relative viability,[9]; first compound 8 µM,0.585
same,relative viability,[10]; first compound 0.08 µM,1.08
same,relative viability,[10]; first compound 0.253 µM,1.15
same,relative viability,[10]; first compound 0.8 µM,1.34
same,relative viability,[10]; first compound 2.53 µM,1.1
same,relative viability,[10]; first compound 8 µM,1.3
same,relative viability,[11]; first compound 0.08 µM,1.11
same,relative viability,[11]; first compound 0.253 µM,0.851
same,relative viability,[11]; first compound 0.8 µM,0.812
same,relative viability,[11]; first compound 2.53 µM,1.03
same,relative viability,[11]; first compound 8 µM,0.903
same,relative viability,[12]; first compound 0.08 µM,1.18
same,relative viability,[12]; first compound 0.253 µM,1.12
same,relative viability,[12]; first compound 0.8 µM,1.01
same,relative viability,[12]; first compound 2.53 µM,1.11
same,relative viability,[12]; first compound 8 µM,1.16
same,relative viability,[13]; first compound 0.08 µM,0.849
same,relative viability,[13]; first compound 0.253 µM,1.01
same,relative viability,[13]; first compound 0.8 µM,0.908
same,relative viability,[13]; first compound 2.53 µM,0.959
same,relative viability,[13]; first compound 8 µM,0.856
same,relative viability,[14]; first compound 0.08 µM,1.35
same,relative viability,[14]; first compound 0.253 µM,1.23
same,relative viability,[14]; first compound 0.8 µM,1.23
same,relative viability,[14]; first compound 2.53 µM,0.977
same,relative viability,[14]; first compound 8 µM,1.08
same,relative viability,[15]; first compound 0.08 µM,0.882
same,relative viability,[15]; first compound 0.253 µM,0.807
same,relative viability,[15]; first compound 0.8 µM,0.732
same,relative viability,[15]; first compound 2.53 µM,0.844
same,relative viability,[15]; first compound 8 µM,0.801
same,relative viability,[16]; first compound 0.08 µM,0.797
same,relative viability,[16]; first compound 0.253 µM,0.826
same,relative viability,[16]; first compound 0.8 µM,0.91
same,relative viability,[16]; first compound 2.53 µM,0.933
same,relative viability,[16]; first compound 8 µM,0.806
same,relative viability,[17]; first compound 0.08 µM,1.13
same,relative viability,[17]; first compound 0.253 µM,1.05
same,relative viability,[17]; first compound 0.8 µM,1.16
same,relative viability,[17]; first compound 2.53 µM,1.07
same,relative viability,[17]; first compound 8 µM,1.15
same,relative viability,[18]; first compound 0.08 µM,0.824
same,relative viability,[18]; first compound 0.253 µM,1.01
same,relative viability,[18]; first compound 0.8 µM,1.04
same,relative viability,[18]; first compound 2.53 µM,0.846
same,relative viability,[18]; first compound 8 µM,0.5
same,relative viability,[19]; first compound 0.08 µM,1.19
same,relative viability,[19]; first compound 0.253 µM,1.25
same,relative viability,[19]; first compound 0.8 µM,1.19
same,relative viability,[19]; first compound 2.53 µM,1.18
same,relative viability,[19]; first compound 8 µM,1.15
same,relative viability,[20]; first compound 0.253 µM,1.21
same,relative viability,[20]; first compound 0.8 µM,1.14
same,relative viability,[20]; first compound 2.53 µM,1.21
same,relative viability,[20]; first compound 8 µM,1.11
